Biological target: LcrH1–168 (Yersinia pestis, UniProt P21207)
Type: binding, Y. pestis
Settings: pH 7.8

Chain of LcrH1–168 (P21207 whole entry, looked up): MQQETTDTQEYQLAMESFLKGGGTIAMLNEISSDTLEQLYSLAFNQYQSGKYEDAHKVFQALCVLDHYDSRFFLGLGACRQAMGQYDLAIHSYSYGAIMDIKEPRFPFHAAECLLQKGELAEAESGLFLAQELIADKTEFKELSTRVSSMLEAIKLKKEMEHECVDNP

Substance | ΔH | –TΔS
Ac-QVPELIKPSQ-NH2 [YopD56–65] | –51 ± 2 kJ/mol | 6.69 ± 0.48 kcal/mol
Ac-QGVQLPAPLA-NH2 [YopB48–57] | –44 ± 15 kJ/mol | 5.5 ± 3.59 kcal/mol

Source: publication PMC10116596 (Biochemistry, 2023)
